One assay concerns the target Cannabinoid receptor 2 (Mus musculus, UniProt P47936). Nature of the assay: Binding affinity towards mouse spleen cannabinoid receptor 2 using [3H]CP-55940. The format is tissue-based.
The target in assay [1] is Cannabinoid receptor 1 (Rattus norvegicus, UniProt P20272). Nature of the assay: Binding affinity towards rat forebrain cannabinoid receptor 1 using [3H]CP-55940.
Assay [2] has as its target T1, Cannabinoid receptor 1 (Mus musculus, UniProt P47746). Briefly: Binding affinity towards mouse hippocampal membranes cannabinoid receptor 1 using [3H]SR-141,716A.
In assay [3] the target is T1, Cannabinoid receptor 1. Briefly: Binding affinity towards mouse hippocampal membranes cannabinoid receptor 1 using [131I]-(R)-8.

SMILES strings stand for the structures.

The term Ki denotes the equilibrium dissociation constant of an inhibitor or competing ligand from its target. Read a high Ki as weaker binding.

Sequence of Cannabinoid receptor 1 (Rattus norvegicus, UniProt P20272) (P20272 whole entry): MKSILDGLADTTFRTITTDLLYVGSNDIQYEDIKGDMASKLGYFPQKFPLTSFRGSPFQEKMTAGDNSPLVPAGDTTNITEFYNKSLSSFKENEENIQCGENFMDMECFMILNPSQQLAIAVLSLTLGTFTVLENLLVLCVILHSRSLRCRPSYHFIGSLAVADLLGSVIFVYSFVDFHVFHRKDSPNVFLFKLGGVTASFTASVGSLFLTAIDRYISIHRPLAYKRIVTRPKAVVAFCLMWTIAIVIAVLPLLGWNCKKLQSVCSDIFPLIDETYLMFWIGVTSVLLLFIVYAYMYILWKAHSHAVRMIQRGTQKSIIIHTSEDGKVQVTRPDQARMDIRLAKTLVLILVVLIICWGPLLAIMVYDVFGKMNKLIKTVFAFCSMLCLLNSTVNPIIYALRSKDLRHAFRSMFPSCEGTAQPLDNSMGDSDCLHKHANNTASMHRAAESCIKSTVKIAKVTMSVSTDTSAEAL
Sequence of Cannabinoid receptor 2 (P47936 whole entry): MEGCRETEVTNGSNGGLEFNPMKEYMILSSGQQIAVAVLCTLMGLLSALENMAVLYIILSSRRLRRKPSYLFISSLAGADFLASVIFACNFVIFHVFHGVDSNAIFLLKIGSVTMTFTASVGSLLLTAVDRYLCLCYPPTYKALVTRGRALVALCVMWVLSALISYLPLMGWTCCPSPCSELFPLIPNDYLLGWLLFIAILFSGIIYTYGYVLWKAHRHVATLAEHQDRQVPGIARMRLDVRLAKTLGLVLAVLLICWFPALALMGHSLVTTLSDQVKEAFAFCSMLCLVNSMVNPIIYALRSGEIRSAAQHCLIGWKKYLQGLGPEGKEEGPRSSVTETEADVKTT
T1 sequence (P47746 whole entry): as the sequence (P20272 whole entry) above, with E95D counted along it

For `CN1CCCCC1Cn1cc(C(=O)c2cccc3ccccc23)c2ccc(I)cc21` (configuration not stated), the Ki on Cannabinoid receptor 2 was determined as 0.0098 µM; at Cannabinoid receptor 1 [1], 0.018 µM.

Compound `CN1CCCCC1Cn1cc(C(=O)c2ccc(I)c3ccccc23)c2ccccc21` (configuration not stated) gave a Ki at Cannabinoid receptor 2 of 0.0053 µM.

On to `Cc1c(C(=O)c2ccccc2I)c2ccccc2n1CC1CCCCN1C` (stereo in doubt; 5), for which the inhibition constant (Ki) at Cannabinoid receptor 2 and at Cannabinoid receptor 1 [1] was 0.034 µM throughout. On Cannabinoid receptor 2, `Cc1c(C(=O)c2ccc(I)cc2)c2ccccc2n1CC1CCCCN1C` (configuration not stated) yielded a Ki of 0.79 µM. Consider `Cc1c(C(=O)c2ccccc2I)c2ccccc2n1CC1CCCCN1C` (single isomer, unassigned; (+)), for which the inhibition constant Ki turned out to be 0.01 µM at Cannabinoid receptor 2 and 0.0067 µM on Cannabinoid receptor 1 [1]. The like results for `Cc1c(C(=O)c2cccc(I)c2)c2ccccc2n1CC1CCCCN1C` (configuration not stated) were, in that order, 9.6 µM and 2.9 µM. `CN1CCCC[C@H]1Cn1cc(C(=O)c2ccccc2I)c2ccccc21`: the Ki at Cannabinoid receptor 1 [1] is 0.56 µM. Take `CN1CCCCC1Cn1cc(C(=O)c2cccc3ccccc23)c2ccccc21` (configuration not stated): the values for the Ki on Cannabinoid receptor 2 and on Cannabinoid receptor 1 [1] were 0.00191 µM and 0.00075 µM, respectively. Consider `CN1CCCCC1Cn1cc(C(=O)c2ccccc2I)c2ccccc21` (configuration not stated), for which the inhibitory constant (Ki) on Cannabinoid receptor 1 [2] is 0.0013 µM; on Cannabinoid receptor 1 [3] it was 0.0002 µM.

On to `Cc1c(C(=O)c2ccccc2I)c2ccccc2n1CC1CCCCN1C` (single isomer, unassigned; (-)), for which the Ki at Cannabinoid receptor 2 worked out at 0.083 µM; at Cannabinoid receptor 1 [1], 1.2 µM.

For the origin of these results see ChEMBL document CHEMBL1140442, “Potent cannabinergic indole analogues as radioiodinatable brain imaging agents for the CB1 cannabinoid receptor” (J Med Chem, 2005).
